Earlier results as cited in patent publication US9205054B2 (LOSAN PHARMA GMBH, priority 2005, dated 2015).
Read-outs that look alike come from different tables or passages of the source.

Assays:
[1] = 0.1 molar hydrochloric acid solution, after one hour

CC(C)Cc1ccc(C(C)C(=O)O)cc1 (racemic) [Ibuprofen, 2-(4-isobutylphenyl)propionic acid]
solubility (pH 1-5): under 0.1 g/l
solubility (pH 7.2): about 20 g/l
dissolved ibuprofen [1]: 10%
